Values of other authors as cited in patent US7910108B2, “Sheddase inhibitors combined with CD30-binding immunotherapeutics for the treatment of CD30 positive diseases” (Incyte Corporation, priority 2006, dated 2011).
Like-named read-outs stand apart in the source and are kept apart here.

How the values were obtained:
[1] = test system: CD30; details: in vivo, rodent; administered concomitantly with anti-CD30 immunotoxins
[2] = test system: CD30; details: in vitro; combined with anti-CD30 immunotoxins

## CO[C@H](C(=O)NO)[C@@H](CC(C)C)C(=O)N[C@H](C(=O)Nc1ccccn1)C(C)(C)C [BB-3644]
[1]
  effectiveness of combination versus immunotoxin alone: substantially more effective
[2]
  effectiveness of combination versus immunotoxin alone: substantially more effective
